{
  "source": "patent US12655125B2",
  "about": "(SIRONAX LTD., priority 2020, dated 2026)",
  "data": [
    {"test_system": "HT-29 cells", "assay": "HT29 Cells 0FBS Assay In Vitro (TNF-α/SMAC mimetic/zVAD-FMK induced necroptosis, CellTiter-Glo cell viability)", "type": "cell-based", "settings": "Homo sapiens; HT-29 cells, FBS free medium, TNF-α (10 ng/ml), SMAC mimetic (6 uM), zVAD-FMK (10 μM), 20 hours; geometric mean EC50; read-out: Cell activity (EC50) of Compounds 1-116", "procedure,_shortened": "(§1)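 HT-29 cells (5,000/well, seeded overnight) in serum-free McCoy's 5A were stimulated with TNF-α 10 ng/ml, SMAC mimetic 6 μM and zVAD-FMK 10 μM to induce necroptosis. Compound added as 10-point 3-fold series for 20 h at 37° C. CellTiter-Glo luminescence gives viability; EC50 is geometric mean of duplicate dose-responses.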", "units": {"EC50": "nM"}, "values": [
      {"smiles": "Cc1nn(CC(N)=O)c(C)c1-c1cc(OC2CN(C(=O)N3N=CC[C@H]3c3cc(F)cc(F)c3)C2)c(F)cn1", "note": "[compound 94, (S)-2-(4-(4-((1-(5-(3,5-difluorophenyl)-4,5-dihydro-1H-pyrazole-1-carbonyl)azetidin-3-yl)oxy)-5-fluoropyridin-2-yl)-3,5-dimethyl-1H-pyrazol-1-yl)acetamide]", "EC50": "0.1 to 100"},
      {"smiles": "Cc1scnc1-c1ncc(F)c(OC2CN(C(=O)N3N=CC[C@H]3c3cc(F)cc(F)c3)C2)n1", "note": "[compound 12, (S)-(5-(3,5-difluorophenyl)-4,5-dihydro-1H-pyrazol-1-yl)(3-((5-fluoro-2-(5-methylthiazol-4-yl)pyrimidin-4-yl)oxy)azetidin-1-yl)methanone]", "EC50": "0.1 to 100"}
    ]},
    {"test_system": "HT-29 cells", "assay": "HT29 Cells 0FBS Assay In Vitro (TNF-α/SMAC mimetic/zVAD-FMK induced necroptosis, CellTiter-Glo cell viability)", "type": "cell-based", "settings": "Homo sapiens; HT-29 cells, FBS free medium, TNF-α (10 ng/ml), SMAC mimetic (6 uM), zVAD-FMK (10 μM), 20 hours; geometric mean EC50; read-out: Cell activity (EC50) of Compounds 117-281", "procedure,_shortened": "as §1", "units": {"EC50": "nM"}, "values": [
      {"smiles": "Cc1nc(C#N)sc1-c1cc(OC2CN(C(=O)N3N=CC[C@H]3c3cc(F)cc(F)c3)C2)c(F)cn1", "note": "[compound 188, (S)-5-(4-((1-(5-(3,5-difluorophenyl)-4,5-dihydro-1H-pyrazole-1-carbonyl)azetidin-3-yl)oxy)-5-fluoropyridin-2-yl)-4-methylthiazole-2-carbonitrile]", "EC50": "0.1 to 100"},
      {"smiles": "Cc1nn(-c2cc(OC3CN(C(=O)N4N=CC[C@H]4c4cc(F)cc(F)c4)C3)c(F)cn2)c(C)c1C(=O)N[C@H]1C[C@@H](O)C1", "note": "[compound 254, 1-(4-((1-((S)-5-(3,5-difluorophenyl)-4,5-dihydro-1H-pyrazole-1-carbonyl)azetidin-3-yl)oxy)-5-fluoropyridin-2-yl)-N-((1s,3s)-3-hydroxycyclobutyl)-3,5-dimethyl-1H-pyrazole-4-carboxamide]", "EC50": "0.1 to 100"},
      {"smiles": "Cc1nn(C)c(N)c1-c1cc(OC2CN(C(=O)N3N=CC[C@H]3c3cc(F)cc(F)c3)C2)c(F)cn1", "note": "[compound 210, (S)-(3-((2-(5-amino-1,3-dimethyl-11H-pyrazol-4-yl)-5-fluoropyridin-4-yl)oxy)azetidin-1-yl)(5-(3,5-difluorophenyl)-4,5-dihydro-1H-pyrazol-1-yl)methanone]", "EC50": "0.1 to 100"},
      {"smiles": "CCOC(=O)c1[nH]c(C)c(-c2cc(OC3CN(C(=O)N4N=CC[C@H]4c4cc(F)cc(F)c4)C3)c(F)cn2)c1C", "note": "[compound 153, Ethyl (S)-4-(4-((1-(5-(3,5-difluorophenyl)-4,5-dihydro-1H-pyrazole-1-carbonyl)azetidin-3-yl)oxy)-5-fluoropyridin-2-yl)-3,5-dimethyl-1H-pyrrole-2-carboxylate]", "EC50": "0.1 to 100"},
      {"smiles": "Cc1nn(-c2cc(OC3CN(C(=O)N4N=CC[C@H]4c4cc(F)cc(F)c4)C3)c(F)cn2)c(C)c1N1CCCC1=O", "note": "[compound 270, (S)-1-(1-(4-((1-(5-(3,5-difluorophenyl)-4,5-dihydro-1H-pyrazole-1-carbonyl)azetidin-3-yl)oxy)-5-fluoropyridin-2-yl)-3,5-dimethyl-1H-pyrazol-4-yl)pyrrolidin-2-one]", "EC50": "0.1 to 100"},
      {"smiles": "Cc1nn(-c2cc(OC3CN(C(=O)N4N=CC[C@H]4c4cc(F)cc(F)c4)C3)c(F)cn2)c(C)c1CC(=O)NCCO", "note": "[compound 223, (S)-2-(1-(4-((1-(5-(3,5-difluorophenyl)-4,5-dihydro-1H-pyrazole-1-carbonyl)azetidin-3-yl)oxy)-5-fluoropyridin-2-yl)-3,5-dimethyl-1H-pyrazol-4-yl)-N-(2-hydroxyethyl)acetamide]", "EC50": "0.1 to 100"},
      {"smiles": "Cc1nn(-c2cc(OC3CN(C(=O)N4N=CC[C@H]4c4cc(F)cc(F)c4)C3)c(F)cn2)c(C)c1C(=O)N[C@H]1CCOC1", "note": "[compound 257, 1-(4-((1-((S)-5-(3,5-difluorophenyl)-4,5-dihydro-1H-pyrazole-1-carbonyl)azetidin-3-yl)oxy)-5-fluoropyridin-2-yl)-3,5-dimethyl-N—((S)-tetrahydrofuran-3-yl)-1H-pyrazole-4-carboxamide]", "EC50": "0.1 to 100"},
      {"smiles": "Cn1nc(NC(=O)C2CC2)cc1-c1cc(OC2CN(C(=O)N3N=CC[C@H]3c3cc(F)cc(F)c3)C2)c(F)cn1", "note": "[compound 137, (S)—N-(5-(4-((1-(5-(3,5-difluorophenyl)-4,5-dihydro-1H-pyrazole-1-carbonyl)azetidin-3-yl)oxy)-5-fluoropyridin-2-yl)-1-methyl-1H-pyrazol-3-yl)cyclopropanecarboxamide]", "EC50": "0.1 to 100"}
    ]}
  ]
}
